# According to patent US20240301319A1, “PERFUMING COMPOSITIONS” (FIRMNICH SA, priority 2017, published 2024):
# Counter-ions that a name gives are not always drawn.
# What was measured:
# [1] = Volatility of perfuming compounds (Tables 4 to 10), with top/middle/bottom note type; assay type: physicochemical
# In short: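 Note type follows from air volatility (μg/l): bottom 49–0.1, middle 99–50, top 70,000–100. Compounds are listed within watery, green, fruity, citrus, sweet, gourmand and woody families.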
# [2] = Odor threshold and odor value of perfuming compounds (Tables 4 to 10)
# [3] = Table 6, perfuming compounds having a fruity note
# [4] = Table 6, perfuming compounds having a fruity note, note type by volatility
# [5] = Table 8, perfuming compounds having a sweet note
# [6] = Table 8, perfuming compounds having a sweet note, note type by volatility
# [7] = Table 9, perfuming compounds having a gourmand note, note type by volatility
# [8] = Table 7, citrus note, top, middle or bottom note
# [9] = Table 7, citrus note, equals volatility divided by odor threshold
# [10] = note type (Top/Middle/Bottom) by volatility, perfuming compounds having a green note
# [11] = perfuming compounds having a green note
# [12] = Table 10, perfuming compounds having a woody note, note type by volatility
# [13] = Table 4, watery note, top, middle or bottom note
# [14] = Table 4, watery note, equals volatility divided by odor threshold
molecule,measurement,setting,value
OCCc1ccccc1 [2-PHENYLETHANOL],Volatility,[1]; [3],159.75 μg/l air
same,Type,[1]; [4],"TOP (perfuming compounds having a volatility ranging from 70,000 to 100 μg/l in air are referred to as “top notes”)"
same,Volatility,[1]; [5],159.75 μg/l air
same,Type,[1]; [6],Top
same,Volatility,"[1]; Table 9, gourmand note",159.75 μg/l air
same,Type,[1]; [7],Top
same,Odor Threshold,[2]; [5],1.02E−04 μg/l air
same,Odor Value,[2]; [5],1.56E+06
same,Odor Threshold,"[2]; Table 9, gourmand note",1.02E−04 μg/l air
"CCCOC(=O)[C@H](C)OC(C)(C)CC [(−)-PROPYL (S)-2-(1,1-DIMETHYLPROPOXY)PROPANOATE]",Volatility (μg/l air),"[1]; Table 7, citrus note",995.16 μg/l air
same,Type,[1]; [8],Top
same,Odor Threshold (μg/l air),"[2]; Table 7, citrus note",4.98E−01 μg/l air
same,Odor Value,[2]; [9],2.00E+03
CCCCCC1CCC(=O)O1 (racemic) [(+−)-4-NONANOLIDE],Volatility,[1]; [3],27.42 μg/l air
same,Type,[1]; [4],Bottom
same,Volatility,"[1]; Table 9, gourmand note",27.42 μg/l air
same,Type,[1]; [7],Bottom
same,Odor Threshold,[2]; [3],1.45E−04 μg/l air
same,Odor Value,[2]; [3],1.89E+05
same,Odor Threshold,"[2]; Table 9, gourmand note",1.45E−04 μg/l air
CCOC(=O)C(=O)C(C)CC (racemic) [(+−)-ETHYL 3-METHYL-2-OXOPENTANOATE],Volatility,[1]; [5],2276.17 μg/l air
same,Type,[1]; [6],Top
same,Type,[1]; [10],Top
same,Volatility (μg/l air),[1]; [11],2276.17 μg/l air
same,Odor Threshold,[2]; [5],5.06E−04 μg/l air
same,Odor Value,[2]; [5],4.50E+06
same,Odor Threshold (μg/l air),[2]; [11],5.06E−04 μg/l air
"CCCC(=O)OC(C)(C)Cc1ccccc1 [1,1-DIMETHYL-2-PHENYLETHYL BUTANOATE]",Volatility,[1]; [3],34.65 μg/l air
same,Type,[1]; [4],Bottom
same,Volatility,[1]; [5],34.65 μg/l air
same,Type,[1]; [6],Bottom
same,Volatility,"[1]; Table 9, gourmand note",34.65 μg/l air
same,Type,[1]; [7],Bottom
same,Odor Threshold,[2]; [3],2.68E−02 μg/l air
same,Odor Value,[2]; [3],1.29E+03
same,Odor Threshold,[2]; [5],2.68E−02 μg/l air
same,Odor Value,[2]; [5],1.29E+03
same,Odor Threshold,"[2]; Table 9, gourmand note",2.68E−02 μg/l air
C=CC(C)=CCC=C(C)C,Volatility,[1]; [3],3480.57 μg/l air
same,Type,[1]; [4],"TOP (perfuming compounds having a volatility ranging from 70,000 to 100 μg/l in air are referred to as “top notes”)"
same,Type,[1]; [10],Top
same,Volatility (μg/l air),[1]; [11],3480.57 μg/l air
same,Odor Threshold (μg/l air),[2]; [11],2.57E−02 μg/l air
CC1C(C)(C)C2=C(C(=O)CCC2)C1(C)C (stereo not shown),Type,[1]; [12],Bottom
same,Volatility,"[1]; Table 10, woody note",29.81 μg/l air
same,Odor Threshold,"[2]; Table 10, woody note",4.57E−03 μg/l air
CCC(=O)O[C@H]1C[C@@H]2CC[C@@]1(C)C2(C)C,Type,[1]; [12],Top
same,Volatility,"[1]; Table 10, woody note",216.42 μg/l air
same,Odor Threshold,"[2]; Table 10, woody note",4.55E−02 μg/l air
Cc1ccc2c(c1)CC(C)(CO)C2 (racemic),Volatility (μg/l air),"[1]; Table 4, watery note",4.86 μg/l air
same,Type,[1]; [13],bottom (perfuming compounds having a volatility ranging from 49 to 0.1 μg/l in air are referred to as “bottom notes”)
same,Odor Threshold (μg/l air),"[2]; Table 4, watery note",1.28E−04 μg/l air
same,Odor Value,[2]; [14],3.79E+04
C/C=C(\C)C(=O)OCc1ccccc1 [BENZYL (E)-2-METHYL-2-BUTENOATE],Volatility,[1]; [3],33.88 μg/l air
same,Type,[1]; [4],Bottom
same,Type,[1]; [12],Bottom
same,Volatility,"[1]; Table 10, woody note",33.88 μg/l air
same,Odor Threshold,[2]; [3],3.07E−04 μg/l air
same,Odor Value,[2]; [3],1.11E+05
same,Odor Threshold,"[2]; Table 10, woody note",3.07E−04 μg/l air
CC(=O)OCCC1CCCCC1 [2-CYCLOHEXYL ETHYL ACETATE],Volatility,[1]; [3],489.45 μg/l air
same,Type,[1]; [4],"TOP (perfuming compounds having a volatility ranging from 70,000 to 100 μg/l in air are referred to as “top notes”)"
same,Volatility,[1]; [5],489.45 μg/l air
same,Type,[1]; [6],Top
same,Odor Threshold,[2]; [5],4.49E−02 μg/l air
same,Odor Value,[2]; [5],1.09E+04
CCCCCC#CC(=O)OC [METHYL 2-OCTYNOATE″],Volatility (μg/l air),"[1]; Table 4, watery note",472.01 μg/l air
same,Type,[1]; [13],"TOP (perfuming compounds having a volatility ranging from 70,000 to 100 μg/l in air are referred to as “top notes”)"
same,Odor Threshold (μg/l air),"[2]; Table 4, watery note",8.31E−04 μg/l air
same,Odor Value,[2]; [14],5.68E+05
CCCCC1CCCC(=O)O1 (stereo not shown) [5-NONANOLIDE],Volatility,[1]; [3],23.87 μg/l air
same,Type,[1]; [4],Bottom
same,Volatility,[1]; [5],23.87 μg/l air
same,Type,[1]; [6],Bottom
same,Volatility,"[1]; Table 9, gourmand note",23.87 μg/l air
same,Type,[1]; [7],Bottom
same,Odor Threshold,[2]; [3],1.16E−05 μg/l air
same,Odor Value,[2]; [3],2.06E+06
same,Odor Threshold,[2]; [5],1.16E−05 μg/l air
same,Odor Value,[2]; [5],2.06E+06
same,Odor Threshold,"[2]; Table 9, gourmand note",1.16E−05 μg/l air
"CC(OC=O)C1CCCC(C)(C)C1 (stereo not shown) [1-(3,3-DIMETHYL-1-CYCLOHEXYL)ETHYL FORMATE]",Volatility (μg/l air),"[1]; Table 7, citrus note",1129.46 μg/l air
same,Type,[1]; [8],Top
same,Odor Threshold (μg/l air),"[2]; Table 7, citrus note",2.05E−01 μg/l air
same,Odor Value,[2]; [9],5.50E+03
CCCCCC1CCCC(=O)O1 (racemic) [(+−)-6-pentyltetrahydro-2H-pyran-2-one],Volatility,[1]; [3],9.61 μg/l air
same,Type,[1]; [4],Bottom
same,Volatility,[1]; [5],9.61 μg/l air
same,Type,[1]; [6],Bottom
same,Volatility,"[1]; Table 9, gourmand note",9.61 μg/l air
same,Type,[1]; [7],Bottom
same,Odor Threshold,[2]; [3],3.72E−05 μg/l air
same,Odor Value,[2]; [3],2.58E+05
same,Odor Threshold,[2]; [5],3.72E−05 μg/l air
same,Odor Value,[2]; [5],2.58E+05
same,Odor Threshold,"[2]; Table 9, gourmand note",3.72E−05 μg/l air
COCC(C)Cc1ccccc1 (racemic) [(+−)-(3-methoxy-2-methylpropyl)benzene],Volatility,[1]; [3],587.76 μg/l air
same,Type,[1]; [4],"TOP (perfuming compounds having a volatility ranging from 70,000 to 100 μg/l in air are referred to as “top notes”)"
same,Volatility (μg/l air),"[1]; Table 7, citrus note",587.76 μg/l air
same,Type,[1]; [8],Top
same,Type,[1]; [10],Top
same,Volatility (μg/l air),[1]; [11],587.76 μg/l air
same,Odor Threshold (μg/l air),"[2]; Table 7, citrus note",1.51E−02 μg/l air
same,Odor Value,[2]; [9],3.89E+04
same,Odor Threshold (μg/l air),[2]; [11],1.51E−02 μg/l air
COc1cc(C=O)ccc1O [4-hydroxy-3-methoxybenzaldehyde],Volatility,[1]; [5],4.24 μg/l air
same,Type,[1]; [6],Bottom
same,Volatility,"[1]; Table 9, gourmand note",4.24 μg/l air
same,Type,[1]; [7],Bottom
same,Odor Threshold,[2]; [5],6.75E−06 μg/l air
same,Odor Value,[2]; [5],6.28E+05
same,Odor Threshold,"[2]; Table 9, gourmand note",6.75E−06 μg/l air
"CC(=O)OC(c1ccccc1)C(Cl)(Cl)Cl (racemic) [(+−)-2,2,2-TRICHLORO-1-PHENYLETHYL ACETATE]",Volatility,[1]; [3],11.96 μg/l air
same,Type,[1]; [4],Bottom
same,Volatility (μg/l air),"[1]; Table 7, citrus note",11.96 μg/l air
same,Type,[1]; [8],Bottom
same,Odor Threshold,[2]; [3],1.15E−03 μg/l air
same,Odor Value,[2]; [3],1.04E+04
same,Odor Threshold (μg/l air),"[2]; Table 7, citrus note",1.15E−03 μg/l air
same,Odor Value,[2]; [9],1.04E+04
CCCC(S)CCOC(C)=O (racemic) [(+−)-3-mercaptohexyl acetate],Volatility,[1]; [3],421.09 μg/l air
same,Type,[1]; [4],"TOP (perfuming compounds having a volatility ranging from 70,000 to 100 μg/l in air are referred to as “top notes”)"
same,Type,[1]; [10],Top
same,Volatility (μg/l air),[1]; [11],421.09 μg/l air
same,Odor Threshold (μg/l air),[2]; [11],2.72E−06 μg/l air
"(2RS,4SR)-4-methyl-2-phenyltetrahydro-2H-pyran (A) + (2RS,4RS)-4-methyl-2-phenyltetrahydro-2H-pyran (B)",Volatility (μg/l air),"[1]; Table 7, citrus note",99.84 μg/l air
same,Type,[1]; [8],Middle
same,Odor Threshold (μg/l air),"[2]; Table 7, citrus note",1.04E−03 μg/l air
same,Odor Value,[2]; [9],9.61E+04
CC1(C)CCC[C@@]2(C)[C@H]1CC[C@@]1(C)OCC[C@@H]21,Type,[1]; [12],Bottom
same,Volatility,"[1]; Table 10, woody note",9.23 μg/l air
same,Odor Threshold,"[2]; Table 10, woody note",2.16E−03 μg/l air
CC(C)=CCCC(C)CCOCC=O (racemic),Volatility (μg/l air),"[1]; Table 7, citrus note",4.70 μg/l air
same,Type,[1]; [8],Bottom
same,Odor Threshold (μg/l air),"[2]; Table 7, citrus note",8.95E−04 μg/l air
same,Odor Value,[2]; [9],5.26E+03
